Source: publication PMC6050537, “Inhibition of low-density lipoprotein receptor degradation with a cyclic peptide that disrupts the homodimerization of IDOL E3 ubiquitin ligase” (Chemical Science, 2018)
Residues, ends and D or L forms follow the SMILES beside them.

How the values were obtained:
FERM domain of IDOL = test system: T1, FERM domain of IDOL; assay: 1H 15N HSQC NMR binding to FERM domain (negative control)
T1 construct: made in house; host or cells: E. coli BL21
Description: (§1) The lead candidates, cyclo-CTIFLL and cyclo-CFFLYT, were next analyzed for binding to the RING domain of IDOL by ^1H ^15N HSQC NMR. We also assessed the binding of each peptide to the FERM domain of IDOL as a negative control. […] It should be noted that the 3 residues affected by cyclo-CFFLYT (named RINGPep1) form part of the PPI interface in the crystal structure of the homodimerized RING domains of IDOL (Fig. 1c and ESI Fig. 6 ^†).[15] Furthermore, mutation of V431R coupled with a L433R mutation is known to result in a dimer deficient IDOL.[15]
(§2) ^15N-labeled RING and FERM domains were prepared for NMR experiments by buffer exchange using Amicon Ultra-4 Centrifugal Filter Units with 3 kDa molecular weight cut-off membranes. Buffer conditions for the NMR studies were 50 mM TRIS-d11 pH 7.5, 200 mM NaCl, 3 mM TCEP, 10% (v/v) D2O for the RING domain and 25 mM TRIS-d11, 25 mM NaPi, pH 7.5, 300 mM NaCl, 3 mM TCEP, 10% (v/v) D2O for the FERM domain. The protein concentrations were 80 μM and 70 μM, for the RING and FERM domain respectively. Two-dimensional NMR SOFAST-HMQC titration experiments were carried out on a Bruker 600 MHz spectrometer equipped with a cryoprobe. […]

RING domain of IDOL = test system: T2, RING domain of IDOL; assay: 1H 15N HSQC NMR binding to RING domain
T2 construct: IDOL RING domain (G356-I445) was expressed as TEV cleavable N-terminal HN6-Lysine-Tag; HN6-Lysine-Tag (TEV-cleavable) (N); made in house; host or cells: E. coli (pET vector)
Description: as §1, §2

[1] = test system: IDOL homodimerization (434-IDOL fusion) in IDOL RTHS; assay: IDOL bacterial reverse two-hybrid system (RTHS) drop-spotting; format: cell-based, E. coli; settings: SICLOPPS-encoded peptide, IPTG 25 μM plus arabinose
Description: We used a previously reported genetically encoded high-throughput screening platform that combines a bacterial reverse two-hybrid system (RTHS)[21],[23]–[25] with a plasmid-encoded library of 3.2 million cyclic hexapeptides using split intein circular ligation of peptides and proteins (SICLOPPS).[26],[27] We began by constructing a bacterial RTHS for IDOL homodimerization. IDOL is expressed as an N-terminal fusion with the 434 bacteriophage repressor, with the 38 amino acid disordered region of the 434 repressor acting as linker. IDOL homodimerization is expected to bring together two 434 proteins to form a functional repressor that binds to the operator sites engineered onto the E. coli chromosome, and prevent the expression of 3 genes downstream that are required for growth and survival on selective media (Fig. 1a). We verified the formation of a functional repressor and suppression of growth on selective media upon IDOL homodimerization by drop-spotting (Fig. 1b), and by ONPG assay (ESI Fig. 1 ^†) as previously detailed.[21] A SICLOPPS CXXXXX library (where X = any canonical amino acid) was prepared as previously detailed[28] and transformed into the IDOL RTHS prior to plating on selective media. After incubation of the selection plates for 48 h, 480 surviving colonies were picked and individually assessed for arabinose-dependent survival on selective media by drop-spotting. […]

[2] = target: T3, 6× His-tagged, full-length IDOL (Homo sapiens, UniProt Q8WY64); assay: Surface plasmon resonance (SPR) affinity for IDOL; format: binding; settings: SPR, immobilized full-length His-IDOL; saturation at highest concentrations not observed; read-out: Kd
T3 construct: Full length IDOL (1–445) was cloned with a TEV cleavable N-terminal 6xHis tag; made in house; host or cells: Spodoptera frugiperda Sf21 (baculovirus, pFastbac1)
T3 sequence (Q8WY64 1-445): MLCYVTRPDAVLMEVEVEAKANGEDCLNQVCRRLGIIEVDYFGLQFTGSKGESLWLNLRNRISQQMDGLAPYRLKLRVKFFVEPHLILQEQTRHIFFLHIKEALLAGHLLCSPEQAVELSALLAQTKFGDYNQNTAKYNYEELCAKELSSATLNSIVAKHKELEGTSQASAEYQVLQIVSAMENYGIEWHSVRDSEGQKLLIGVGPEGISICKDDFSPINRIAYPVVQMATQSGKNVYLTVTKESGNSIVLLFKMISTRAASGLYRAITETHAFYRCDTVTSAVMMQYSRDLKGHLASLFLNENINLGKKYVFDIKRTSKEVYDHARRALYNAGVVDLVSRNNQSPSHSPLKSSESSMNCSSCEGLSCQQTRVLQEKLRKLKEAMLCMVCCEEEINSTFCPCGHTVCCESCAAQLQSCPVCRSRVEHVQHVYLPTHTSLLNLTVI
Description: We initially assessed the affinity of the 6 selected cyclic peptides for IDOL by surface plasmon resonance (SPR). Although saturation at the highest concentrations was not observed, due to hydrophobic effects, Kd values could be determined for five peptides (Table 1). […] The hit rate for our IDOL screen is in line with that for previous SICLOPPS screens.[21],[25] It should be noted that although cyclo-CTIFLL and cyclo-CTLILF contain the same amino acids, changing the order in which these are arranged results in activity loss.
All measurements were performed on a Biacore S200 (GE healthcare) using running buffer 10 mM HEPES, 300 mM NaCl, 1 mM TCEP, 0.05% Tween 20 and 4% DMSO at pH 8.0. In brief, 6× His-tagged, full-length IDOL was immobilized on a NTA-chip (Xantec), to a final level of ∼6000 RU. The chip was pre-loaded with Ni^2+ to facilitate efficient capture of His-tagged protein onto the chip. The activity of the immobilized protein was confirmed using a reference compound.
Supplementary Figure 2. […] Saturation of binding was not observed due to the hydrophobic nature of the peptides
(1 picture or pasted object on this page, not shown here)

SMILES: CC(C)C[C@@H]1NC(=O)[C@H](Cc2ccccc2)NC(=O)[C@H](Cc2ccccc2)NC(=O)[C@H](CS)NC(=O)[C@H]([C@@H](C)O)NC(=O)[C@H](Cc2ccc(O)cc2)NC1=O [RINGPep1, cyclo-CFFLYT] (HELM PEPTIDE1{C.F.F.L.Y.T}$PEPTIDE1,PEPTIDE1,1:R1-6:R2$$$V2.0)
- chemical shift changes, FERM domain of IDOL (FERM domain of IDOL): No changes
- chemical shift changes, RING domain of IDOL (RING domain of IDOL): modest chemical shift changes for 3 amino acids
- growth of IDOL RTHS on selective media [1]: restored
- Kd [2]: 38.5 ± 34.8 µM
